Measurements as given in ChEMBL document CHEMBL5325426, “Structure-based discovery of potent USP28 inhibitors derived from Vismodegib” (Eur J Med Chem, 2023).
The source made the active and inactive calls. The calls are words filed in the database; no cut-off is given here.

Legend:
[1] = target: T1, Ubiquitin carboxyl-terminal hydrolase 8 (Homo sapiens) (UniProt P40818); assay: Inhibition of USP8 (734 to 1110 residues) (unknown origin) expressed in Escherichia coli BL21 (DE3) using Ub-AMC as substrate at 5 uM by fluorescence based analysis
T1 sequence (whole entry): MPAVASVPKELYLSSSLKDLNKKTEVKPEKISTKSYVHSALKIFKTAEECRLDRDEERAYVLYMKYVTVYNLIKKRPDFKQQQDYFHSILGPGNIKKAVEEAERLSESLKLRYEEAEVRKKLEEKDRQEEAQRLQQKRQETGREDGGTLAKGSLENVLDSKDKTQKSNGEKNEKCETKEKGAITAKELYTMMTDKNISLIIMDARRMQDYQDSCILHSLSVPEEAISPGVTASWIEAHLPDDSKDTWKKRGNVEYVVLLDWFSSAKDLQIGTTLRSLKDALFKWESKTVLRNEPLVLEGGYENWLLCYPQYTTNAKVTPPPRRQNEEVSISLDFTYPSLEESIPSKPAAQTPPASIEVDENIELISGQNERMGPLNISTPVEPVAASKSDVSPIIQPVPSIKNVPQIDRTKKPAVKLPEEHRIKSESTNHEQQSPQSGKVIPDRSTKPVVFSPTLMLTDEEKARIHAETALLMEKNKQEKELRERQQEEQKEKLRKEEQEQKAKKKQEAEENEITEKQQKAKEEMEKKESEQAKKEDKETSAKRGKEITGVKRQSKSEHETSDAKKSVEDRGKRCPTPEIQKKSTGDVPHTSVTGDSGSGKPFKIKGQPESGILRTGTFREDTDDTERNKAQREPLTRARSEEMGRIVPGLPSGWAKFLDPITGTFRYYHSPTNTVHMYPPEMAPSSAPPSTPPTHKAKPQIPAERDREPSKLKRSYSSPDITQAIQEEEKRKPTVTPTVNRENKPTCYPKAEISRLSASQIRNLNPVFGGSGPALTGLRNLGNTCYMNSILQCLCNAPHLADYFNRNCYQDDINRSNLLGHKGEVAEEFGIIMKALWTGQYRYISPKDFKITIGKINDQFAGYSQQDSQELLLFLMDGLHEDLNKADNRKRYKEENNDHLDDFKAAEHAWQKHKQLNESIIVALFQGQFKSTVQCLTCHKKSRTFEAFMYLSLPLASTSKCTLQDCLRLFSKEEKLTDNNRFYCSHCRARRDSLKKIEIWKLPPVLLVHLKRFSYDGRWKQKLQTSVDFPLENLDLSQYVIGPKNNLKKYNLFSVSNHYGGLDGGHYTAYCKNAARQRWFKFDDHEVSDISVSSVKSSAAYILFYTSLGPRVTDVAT

[2] = test system: HCT-116; assay: Antiproliferative activity against human HCT-116 cells assessed as cell growth inhibition incubated for 3 days by SRB assay; format: functional, cell-based; details: HCT-116, 72 h
[3] = target: T2, Ubiquitin carboxyl-terminal hydrolase 2 (Homo sapiens) (UniProt O75604); assay: Inhibition of USP2 (258 to 605 residues) (unknown origin) expressed in Escherichia coli BL21 (DE3) using Ub-AMC as substrate at 5 uM by fluorescence based analysis
T2 sequence (whole entry): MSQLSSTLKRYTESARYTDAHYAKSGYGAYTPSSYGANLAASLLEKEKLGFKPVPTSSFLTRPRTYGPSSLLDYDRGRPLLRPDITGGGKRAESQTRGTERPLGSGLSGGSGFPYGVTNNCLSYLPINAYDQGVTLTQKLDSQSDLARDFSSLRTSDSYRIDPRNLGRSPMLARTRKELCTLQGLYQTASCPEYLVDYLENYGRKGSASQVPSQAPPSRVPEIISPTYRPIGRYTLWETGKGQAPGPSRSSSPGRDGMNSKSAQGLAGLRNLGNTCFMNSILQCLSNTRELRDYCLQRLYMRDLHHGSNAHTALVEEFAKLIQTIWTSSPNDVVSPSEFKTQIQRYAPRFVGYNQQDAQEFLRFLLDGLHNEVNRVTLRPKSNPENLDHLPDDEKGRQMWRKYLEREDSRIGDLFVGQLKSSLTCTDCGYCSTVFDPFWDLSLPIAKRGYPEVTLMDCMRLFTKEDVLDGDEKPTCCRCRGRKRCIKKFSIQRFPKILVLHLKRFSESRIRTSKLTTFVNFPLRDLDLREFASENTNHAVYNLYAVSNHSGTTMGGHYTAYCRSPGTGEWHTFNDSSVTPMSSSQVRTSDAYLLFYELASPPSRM

[4] = test system: LS174T; assay: Antiproliferative activity against human LS174T cells assessed as cell growth inhibition incubated for 3 days by SRB assay; format: functional, cell-based; details: 72 h
[5] = target: Ubiquitin carboxyl-terminal hydrolase 7 (Homo sapiens) (UniProt Q93009); assay: Inhibition of USP7 (208 to 560 residues) (unknown origin) expressed in Escherichia coli BL21 (DE3) using Ub-AMC as substrate at 5 uM by fluorescence based analysis
Sequence of Ubiquitin carboxyl-terminal hydrolase 7 (Homo sapiens) (Q93009 whole entry, looked up, the tested form may be a part): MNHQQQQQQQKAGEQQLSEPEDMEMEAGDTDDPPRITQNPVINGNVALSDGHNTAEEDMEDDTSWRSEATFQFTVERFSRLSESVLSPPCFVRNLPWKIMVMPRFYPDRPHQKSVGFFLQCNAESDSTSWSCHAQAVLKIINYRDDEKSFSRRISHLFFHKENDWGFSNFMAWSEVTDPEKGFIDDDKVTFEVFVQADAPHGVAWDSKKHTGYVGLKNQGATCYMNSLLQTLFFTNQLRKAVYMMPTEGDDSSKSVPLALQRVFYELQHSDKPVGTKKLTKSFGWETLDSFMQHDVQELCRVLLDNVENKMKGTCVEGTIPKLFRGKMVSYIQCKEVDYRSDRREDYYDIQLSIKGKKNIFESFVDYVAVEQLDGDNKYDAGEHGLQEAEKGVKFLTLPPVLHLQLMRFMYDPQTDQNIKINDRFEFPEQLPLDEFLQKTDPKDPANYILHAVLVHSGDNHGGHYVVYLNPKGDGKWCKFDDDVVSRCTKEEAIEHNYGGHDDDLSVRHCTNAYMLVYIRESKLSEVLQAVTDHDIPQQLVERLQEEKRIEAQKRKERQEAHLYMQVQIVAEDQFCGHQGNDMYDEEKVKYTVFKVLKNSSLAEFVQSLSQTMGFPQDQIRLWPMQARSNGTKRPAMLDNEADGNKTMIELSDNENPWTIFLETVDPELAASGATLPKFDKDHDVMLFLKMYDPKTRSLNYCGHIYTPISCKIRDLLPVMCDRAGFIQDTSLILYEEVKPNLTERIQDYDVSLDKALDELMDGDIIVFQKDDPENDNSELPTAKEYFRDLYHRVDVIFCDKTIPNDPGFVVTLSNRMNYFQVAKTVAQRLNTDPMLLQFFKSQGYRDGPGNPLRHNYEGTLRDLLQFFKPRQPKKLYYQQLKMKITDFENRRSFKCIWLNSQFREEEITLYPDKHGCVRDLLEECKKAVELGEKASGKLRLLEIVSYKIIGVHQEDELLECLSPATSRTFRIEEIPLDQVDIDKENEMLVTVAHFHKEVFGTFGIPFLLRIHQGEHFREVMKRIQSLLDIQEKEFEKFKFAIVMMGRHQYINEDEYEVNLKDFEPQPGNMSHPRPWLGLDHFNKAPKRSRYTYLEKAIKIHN

Compound | inhibition [1] | IC50 [2] | inhibition [3] | IC50 [4] | inhibition [5]
CS(=O)(=O)c1ccc(C(=O)Nc2ccc(Cl)c(-c3ccc4c(c3)CNC4)c2)c(Cl)c1 | Active | 38.1 µM | Active | 24.3 µM | Active
CS(=O)(=O)c1ccc(C(=O)Nc2ccc(Cl)c(-c3ccc4c(c3)CCNC4)c2)c(Cl)c1 | Active | 24.2 µM | Active | 19.9 µM | Active
CS(=O)(=O)c1ccc(C(=O)Nc2ccc(Cl)c(-c3ccc(C4(N)CC4)cc3)c2)c(Cl)c1 | Active | 26 µM | Active | 21.9 µM | Active
